US20240041042A1, “1-(PYRIDYL)-5-AZINYLPYRAZOLE DERIVATIVES, AND THEIR USE FOR CONTROL OF UNDESIRED PLANT GROWTH” (Bayer Aktiengesellschaft, priority 2020, published 2024)
Read-outs that look alike come from different tables or passages of the source.

Key:
Assay type in all cases: in vivo
Avena fatua (AVEFA) [1] = test: Post-emergence herbicidal action against AVEFA; conditions: visual rating about 3 weeks after treatment
Procedure, shortened: (§1)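 Rates were 320 g/ha or below, applied as aqueous WP/EC spray with 0.5% additive (600 l/ha) onto one-leaf-stage plants. About 3 weeks later in the greenhouse, damage was scored visually against untreated plants on a 0–100% scale, where 100% means plants died.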

[2] = test system: Matricaria inodora (MATIN); test: Pre-emergence herbicidal action against MATIN
Procedure, shortened: (§2)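 Dosages of 320 g/ha or less; pre-emergence; WP or EC in aqueous spray, 0.5% additive, 600 l/ha; greenhouse; visual % effect after ~3 wk relative to control pots.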

Oryza sativa (ORYSA) = conditions: crop plant compatibility
Procedure, shortened: (§3)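 One-leaf-stage crops (2–3 wk post-sowing, sandy loam, greenhouse) sprayed on green parts; 0.5% additive, 600 l/ha water. Rated by eye ~3 wk later, % vs untreated; suffixes a/b/c mark different dosages.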

[3] = test system: Amaranthus retroflexus (AMARE); test: Pre-emergence herbicidal action against AMARE; conditions: visual scoring after about 3 weeks vs untreated controls
Procedure, shortened: as §2

[4] = test system: Alopecurus myosuroides (ALOMY); test: Pre-emergence herbicidal action against ALOMY; conditions: scored visually after about 3 weeks, 100% = plants have died
Procedure, shortened: as §2

[5] = test system: Polygonum convolvulus (POLCO); test: Pre-emergence herbicidal action against POLCO
Procedure, shortened: as §2

Setaria viridis (SETVI) [6] = test: Pre-emergence herbicidal action against SETVI
Procedure, shortened: as §2

Viola tricolor (VIOTR) [7] = test: Post-emergence herbicidal action against VIOTR
Procedure, shortened: as §1

[8] = test system: Digitaria sanguinalis (DIGSA); test: Pre-emergence herbicidal action against DIGSA
Excerpt: Seeds of monocotyledonous and dicotyledonous weed plants and crop plants are placed in plastic or organic planting pots and covered with soil. The compounds of the invention, formulated in the form of wettable powders (WP) or as emulsion concentrates (EC), are then applied to the surface of the covering soil as aqueous suspension or emulsion with addition of 0.5% additive at a water application rate equivalent to 600 l/ha. After the treatment, the pots are placed in a greenhouse and kept under good growth conditions for the trial plants. After about 3 weeks, the effect of the preparations is scored visually in comparison with untreated controls as percentages. For example, 100% activity=the plants have died, 0% activity=like control plants.
Tables A1 to A13 below show the effects of selected compounds of the general formula (I) on various harmful plants and at an application rate corresponding to 320 g/ha or lower, which were obtained by the experimental procedure mentioned above. The appendices “a”, “b” and “c” give differentiation by dosage used with otherwise the same harmful plants tested.

[9] = test system: Abutilon theophrasti (ABUTH); test: Post-emergence herbicidal action against ABUTH; conditions: visual rating about 3 weeks after treatment vs untreated controls (100% = plants have died, 0% = like control plants)
Procedure, shortened: as §1

Lolium rigidum (LOLRI) = test: Pre-emergence herbicidal action against LOLRI
Procedure, shortened: as §2

[10] = test system: Echinochloa crus-galli (ECHCG); test: Post-emergence herbicidal action against ECHCG
Procedure, shortened: as §1

[11] = test system: Pharbitis purpurea (PHBPU); test: Pre-emergence herbicidal action against PHBPU
Procedure, shortened: as §2

Viola tricolor (VIOTR) [12] = test: Pre-emergence herbicidal action against VIOTR
Procedure, shortened: as §2

[13] = test system: Verconica persica (VERPE); test: Pre-emergence herbicidal action against VERPE
Procedure, shortened: as §2

[14] = test system: Digitaria sanguinalis (DIGSA); test: Post-emergence herbicidal action against DIGSA; conditions: visual rating about 3 weeks after treatment
Procedure, shortened: as §1

[15] = test system: Matricaria inodora (MATIN); test: Post-emergence herbicidal action against MATIN
Procedure, shortened: as §1

[16] = test system: Pharbitis purpurea (PHBPU); test: Post-emergence herbicidal action against PHBPU
Procedure, shortened: as §1

[17] = test system: Echinochloa crus-galli (ECHCG); test: Pre-emergence herbicidal action against ECHCG
Procedure, shortened: as §2

Setaria viridis (SETVI) [18] = test: Post-emergence herbicidal action against SETVI; conditions: dosage 320 g/ha
Procedure, shortened: as §1

[19] = test system: Amaranthus retroflexus (AMARE); test: Post-emergence herbicidal action against AMARE; conditions: 80 g/ha, visual rating about 3 weeks after treatment vs untreated controls (100% = plants have died, 0% = like control plants)
Procedure, shortened: as §1

Zea mays (ZEAMX) = test system: Zea mays (ZEAMX)
Procedure, shortened: as §3

[20] = test system: Verconica persica (VERPE); test: Post-emergence herbicidal action against VERPE
Procedure, shortened: as §1

[21] = test system: Polygonum convolvulus (POLCO); test: Post-emergence herbicidal action against POLCO; conditions: dosage 80 g/ha
Procedure, shortened: as §1

Avena fatua (AVEFA) [22] = test: Pre-emergence herbicidal action against AVEFA; conditions: 320 g/ha, visual scoring after about 3 weeks vs untreated controls
Procedure, shortened: as §2

[23] = test system: Alopecurus myosuroides (ALOMY); test: Post-emergence herbicidal action against ALOMY; conditions: 80 g/ha, visual rating about 3 weeks after treatment vs untreated controls (100% = plants have died, 0% = like control plants)
Procedure, shortened: as §1

[24] = 80 g/ha, effect in comparison to untreated controls
[25] = 80 g/ha, visual scoring after about 3 weeks vs untreated controls

SMILES: COC(=O)COc1nn(-c2nc(F)ccc2F)c(-c2cncc(F)c2)c1Cl [Example I-216]
- Post-emergence action against AVEFA in % (Avena fatua (AVEFA) [1]; 320 g/ha): 80%
- Pre-emergence action against MATIN in % ([2]; dosage 80 g/ha): 90%
- Pre-emergence action against MATIN in % ([2]; dosage 320 g/ha): 90%
- Post-emergence action against ORYSA in % (Oryza sativa (ORYSA); [24]): 10%
- Pre-emergence action against AMARE in % ([3]; 80 g/ha): 90%
- Pre-emergence action against AMARE in % ([3]; 320 g/ha): 90%
- Pre-emergence action against ALOMY ([4]; 320 g/ha): 90%
- Pre-emergence action against POLCO in % ([5]; dosage 80 g/ha): 90%
- Pre-emergence action against POLCO in % ([5]; dosage 320 g/ha): 90%
- Pre-emergence action against SETVI in % (Setaria viridis (SETVI) [6]; dosage 80 g/ha): 80%
- Pre-emergence action against SETVI in % (Setaria viridis (SETVI) [6]; dosage 320 g/ha): 100%
- Post-emergence action against VIOTR in % (Viola tricolor (VIOTR) [7]; 80 g/ha): 80%
- Post-emergence action against VIOTR in % (Viola tricolor (VIOTR) [7]; 320 g/ha): 80%
- Pre-emergence action against DIGSA in % [8, 25]: 90%
- Pre-emergence action against DIGSA in % ([8]; dosage 320 g/ha): 100%
- Post-emergence action against ABUTH in % ([9]; 320 g/ha): 80%
- Pre-emergence action against LOLRI in % (Lolium rigidum (LOLRI); dosage 320 g/ha): 80%
- Post-emergence action against ECHCG in % ([10]; dosage 80 g/ha): 80%
- Post-emergence action against ECHCG in % ([10]; dosage 320 g/ha): 80%
- Pre-emergence action against PHBPU in % ([11]; dosage 80 g/ha): 90%
- Pre-emergence action against PHBPU in % ([11]; dosage 320 g/ha): 90%
- Pre-emergence action against VIOTR in % (Viola tricolor (VIOTR) [12]; 320 g/ha, Viola tricolor): 100%
- Pre-emergence action against VIOTR in % (Viola tricolor (VIOTR) [12]; dosage 80 g/ha): 100%
- Pre-emergence action against VERPE in % ([13]; dosage 320 g/ha): 90%
- Post-emergence action against DIGSA in % ([14]; 80 g/ha): 80%
- Post-emergence action against DIGSA in % ([14]; 320 g/ha): 80%
- Post-emergence action against MATIN in % ([15]; dosage 80 g/ha): 80%
- Post-emergence action against MATIN in % ([15]; dosage 320 g/ha): 80%
- Post-emergence action against PHBPU in % ([16]; dosage 80 g/ha): 80%
- Post-emergence action against PHBPU in % ([16]; dosage 320 g/ha): 80%
- Pre-emergence action against ECHCG in % ([17]; dosage 80 g/ha): 80%
- Pre-emergence action against ECHCG in % ([17]; dosage 320 g/ha): 100%
- Post-emergence action against SETVI in % (Setaria viridis (SETVI) [18]): 80%

SMILES: CCOC(=O)COc1nn(-c2ncccc2F)c(-c2ccc(F)nc2)c1C(F)(F)F [Example I-56]
- Post-emergence action against AMARE in % [19]: 80%
- Post-emergence action against AVEFA in % (Avena fatua (AVEFA) [1]; 80 g/ha): 80%
- Pre-emergence action against MATIN in % ([2]; dosage 320 g/ha): 100%
- Post-emergence action against ORYSA in % (Oryza sativa (ORYSA); 20 g/ha, effect vs untreated controls): 0%
- Post-emergence action against ORYSA in % (Oryza sativa (ORYSA); [24]): 0%
- Post-emergence action against ZEAMX in % (crop plant compatibility) (Zea mays (ZEAMX); 20 g/ha, ZEAMX, effect in comparison to untreated controls): 0%
- Post-emergence action against ZEAMX in % (Zea mays (ZEAMX); crop plant compatibility, 80 g/ha, effect vs untreated controls): 0%
- Pre-emergence action against AMARE in % ([3]; 80 g/ha): 100%
- Pre-emergence action against AMARE in % ([3]; 320 g/ha): 100%
- Post-emergence action against VERPE in % ([20]; dosage 80 g/ha): 80%
- Pre-emergence action against ALOMY ([4]; 80 g/ha): 100%
- Pre-emergence action against ALOMY ([4]; 320 g/ha): 100%
- Post-emergence action against POLCO in % [21]: 80%
- Pre-emergence action against AVEFA in % (Avena fatua (AVEFA) [22]): 100%
- Pre-emergence action against POLCO in % ([5]; dosage 80 g/ha): 80%
- Pre-emergence action against POLCO in % ([5]; dosage 320 g/ha): 90%
- Pre-emergence action against SETVI in % (Setaria viridis (SETVI) [6]; dosage 320 g/ha): 100%
- Post-emergence action against VIOTR in % (Viola tricolor (VIOTR) [7]; 80 g/ha): 80%
- Pre-emergence action against DIGSA in % [8, 25]: 100%
- Pre-emergence action against DIGSA in % ([8]; dosage 320 g/ha): 100%
- Post-emergence action against ABUTH in % ([9]; 80 g/ha): 80%
- Pre-emergence action against LOLRI in % (Lolium rigidum (LOLRI); dosage 80 g/ha): 100%
- Pre-emergence action against LOLRI in % (Lolium rigidum (LOLRI); dosage 320 g/ha): 100%
- Pre-emergence action against PHBPU in % ([11]; dosage 320 g/ha): 90%
- Pre-emergence action against VIOTR in % (Viola tricolor (VIOTR) [12]; 320 g/ha, Viola tricolor): 100%
- Pre-emergence action against VIOTR in % (Viola tricolor (VIOTR) [12]; dosage 80 g/ha): 100%
- Pre-emergence action against VERPE in % ([13]; dosage 320 g/ha): 100%
- Post-emergence action against ALOMY in % [23]: 90%
- Post-emergence action against DIGSA in % ([14]; 80 g/ha): 90%
- Post-emergence action against PHBPU in % ([16]; dosage 80 g/ha): 80%
- Pre-emergence action against ECHCG in % ([17]; dosage 320 g/ha): 100%

SMILES: O=C(O)COc1nn(-c2nc(F)ccc2F)c(-c2cncc(F)c2)c1Cl [Example I-231]
- Pre-emergence action against MATIN in % ([2]; dosage 80 g/ha): 90%
- Pre-emergence action against MATIN in % ([2]; dosage 320 g/ha): 90%
- Post-emergence action against ORYSA in % (Oryza sativa (ORYSA); [24]): 10%
- Pre-emergence action against AMARE in % ([3]; 320 g/ha): 90%
- Post-emergence action against VERPE in % ([20]; 320 g/ha, VERPE): 80%
- Pre-emergence action against ALOMY ([4]; 320 g/ha): 90%
- Pre-emergence action against AVEFA in % (Avena fatua (AVEFA) [22]): 90%
- Pre-emergence action against SETVI in % (Setaria viridis (SETVI) [6]; dosage 80 g/ha): 90%
- Pre-emergence action against SETVI in % (Setaria viridis (SETVI) [6]; dosage 320 g/ha): 90%
- Post-emergence action against VIOTR in % (Viola tricolor (VIOTR) [7]; 320 g/ha): 80%
- Pre-emergence action against DIGSA in % [8, 25]: 90%
- Pre-emergence action against DIGSA in % ([8]; dosage 320 g/ha): 100%
- Pre-emergence action against LOLRI in % (Lolium rigidum (LOLRI); dosage 320 g/ha): 80%
- Post-emergence action against ECHCG in % ([10]; dosage 80 g/ha): 80%
- Post-emergence action against ECHCG in % ([10]; dosage 320 g/ha): 90%
- Pre-emergence action against PHBPU in % ([11]; dosage 80 g/ha): 90%
- Pre-emergence action against PHBPU in % ([11]; dosage 320 g/ha): 90%
- Pre-emergence action against VIOTR in % (Viola tricolor (VIOTR) [12]; 320 g/ha, Viola tricolor): 100%
- Pre-emergence action against VIOTR in % (Viola tricolor (VIOTR) [12]; dosage 80 g/ha): 100%
- Pre-emergence action against VERPE in % ([13]; dosage 80 g/ha): 80%
- Pre-emergence action against VERPE in % ([13]; dosage 320 g/ha): 80%
- Post-emergence action against DIGSA in % ([14]; 320 g/ha): 90%
- Post-emergence action against MATIN in % ([15]; dosage 80 g/ha): 80%
- Post-emergence action against MATIN in % ([15]; dosage 320 g/ha): 80%
- Post-emergence action against PHBPU in % ([16]; dosage 320 g/ha): 80%
- Pre-emergence action against ECHCG in % ([17]; dosage 80 g/ha): 90%
- Pre-emergence action against ECHCG in % ([17]; dosage 320 g/ha): 90%
- Post-emergence action against SETVI in % (Setaria viridis (SETVI) [18]): 80%
